Reference: patent US11117947B2, “Double-acylated GLP-1 derivatives” (Novo Nordisk A/S, priority 2011, dated 2021)
Numbered stars: 1 amine (or outer) side, 2 acyl side, 3 side chain; on linkers, the order of the positions; unused ones are H or OH. Square brackets hold non-standard residues; d marks the D form. Side chains are listed from the residue outwards. Peptide text beside a SMILES is read from it. * marks the point of attachment. Decanoyl(10-(4-HOOC-PhO)) = O=C(O)c1ccc(OCCCCCCCCCC(=O)*)cc1; γGlu = O=C(O)[C@H](CCC(=O)[*:2])N[*:1]; C14 diacid = O=C(O)CCCCCCCCCCCCC(=O)*; AEEA = NCCOCCOCC(=O)O; Aib = CC(C)(N)C(=O)O

Key:
[1] = Pharmacokinetics in rat: half-life after i.v. administration; type: in vivo; settings: plasma, iv, 6 nmol/kg, male Sprague Dawley rats, approximately 4 rats per group, read-out: t½/h (half-life in rat) (converted)
Protocol: In vivo pharmacokinetic studies in rats were performed with the GLP-1 derivatives of Examples 2, 10, 17-18, and 31, as described in the following. Semaglutide was included for comparison.
Male Sprague Dawley rats of same age with a body weight of approximately 400 g were obtained from Taconic (Denmark) and assigned to the treatments by simple randomisation on body weight, approximately 4 rats per group, so that all animals in each group were of similar body weight.
The GLP-1 derivatives (approximately 6 nmol/ml) were dissolved in 50 mM sodium phosphate, 145 mM sodium chloride, 0.05% tween 80, pH 7.4. Intravenous injections (1.0 ml/kg) of the compounds were given through a catheter implanted in the right jugular vein. Blood was sampled from vena sublingualis for 5 days post dosing. Blood samples (200 μl) were collected in EDTA buffer (8 mM) and then centrifuged at 4° C. and 10000 G for 5 minutes. Plasma samples were kept at −20° C. until analyzed for plasma concentration of the respective GLP-1 compound.
The plasma concentrations of the GLP-1 compounds were determined using a Luminescence Oxygen Channeling Immunoasssay (LOCI), generally as described for the determination of insulin by Poulsen and Jensen in Journal of Biomolecular Screening 2007, vol. 12, p. 240-247. The donor beads were coated with streptavidin, while acceptor beads were conjugated with a monoclonal antibody recognising a mid-/C-terminal epitope of the peptide. Another monoclonal antibody, specific for the N-terminus, was biotinylated. The three reactants were combined with the analyte and formed a two-sited immuno-complex. Illumination of the complex released singlet oxygen atoms from the donor beads, which were channeled into the acceptor beads and triggered chemiluminescence which was measured in an Envision plate reader. The amount of light was proportional to the concentration of the compound.
Plasma concentration-time profiles were analyzed using Phoenix WinNonLin ver. 6.2, Pharsight Inc., Mountain View, Calif., USA), and the half-life (T1/2) calculated using individual plasma concentration-time profiles from each animal.

[2] = Estimate of oral bioavailability: gut injection in rat (caprate), exposure in plasma; type: in vivo; settings: injection in jejunum, 1000 uM in 55 mg/ml sodium caprate, plasma concentration (pM) at 30 min divided by dosing solution concentration (μM), mean n=4
In short: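 Male Sprague Dawley rats (~240 g, n=4) received 100 μl of 1000 uM derivative in 55 mg/ml sodium caprate by catheter into proximal or mid jejunum. Tail-vein EDTA plasma was sampled up to 240 min. Peptide was quantified by two-antibody bead chemiluminescence immunoassay, giving mean concentration-time profiles (pmol/l).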

[3] = Half-life in minipigs after i.v. administration; type: in vivo; settings: minipig, plasma, iv, male Göttingen minipigs, read-out: terminal half-life (converted)
Description: By terminal half-life is generally meant the period of time it takes to halve a certain plasma concentration, measured after the initial distribution phase.

human GLP-1 receptor = target: T1, human GLP-1 receptor (Homo sapiens, UniProt P43220); assay: GLP-1 receptor binding: displacement of 125I-GLP-1 (SPA) at low and high albumin; settings: 2.0% HSA vs 0.001% HSA
T1 construct: expressed in transfected cells; membranes
T1 sequence (P43220 24-463): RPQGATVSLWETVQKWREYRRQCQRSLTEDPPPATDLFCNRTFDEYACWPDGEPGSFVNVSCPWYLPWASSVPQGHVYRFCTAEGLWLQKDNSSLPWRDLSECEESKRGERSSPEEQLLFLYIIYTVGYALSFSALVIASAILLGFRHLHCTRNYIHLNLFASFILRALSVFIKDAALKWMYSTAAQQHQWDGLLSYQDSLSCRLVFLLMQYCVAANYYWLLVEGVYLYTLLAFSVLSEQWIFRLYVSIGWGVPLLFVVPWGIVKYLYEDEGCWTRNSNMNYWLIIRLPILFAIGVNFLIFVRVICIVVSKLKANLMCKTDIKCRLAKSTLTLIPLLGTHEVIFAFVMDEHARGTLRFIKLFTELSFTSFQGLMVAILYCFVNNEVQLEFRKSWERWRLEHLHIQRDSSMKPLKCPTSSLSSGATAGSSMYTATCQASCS
In short: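 Membranes from hamster cells stably transfected with the receptor, with WGA SPA beads and 0.06 nM [^125I]-GLP-1(7-36)NH2, incubated 120 min at 30 °C with shaking.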

Row | SMILES | half-life [1] [h] | Dose-corrected exposure at 30 min [2] | half-life [3] [h] | Ratio [(IC50/nM) high HSA]/[(IC50/nM) low HSA] (human GLP-1 receptor)
1 | CC[C@H](C)[C@H](NC(=O)[C@H](Cc1ccccc1)NC(=O)[C@H](CCCCNC(=O)COCCOCCNC(=O)COCCOCCNC(=O)CC[C@H](NC(=O)CCCCCCCCCOc1ccc(C(=O)O)cc1)C(=O)O)NC(=O)[C@H](CCCNC(=N)N)NC(=O)[C@H](C)NC(=O)[C@H](C)NC(=O)[C@H](CCC(N)=O)NC(=O)[C@H](CCC(=O)O)NC(=O)[C@H](CCC(=O)O)NC(=O)[C@H](CC(C)C)NC(=O)[C@H](Cc1ccc(O)cc1)NC(=O)[C@H](CO)NC(=O)[C@H](CO)NC(=O)[C@@H](NC(=O)[C@H](CC(=O)O)NC(=O)[C@H](CO)NC(=O)[C@@H](NC(=O)[C@H](Cc1ccccc1)NC(=O)[C@@H](NC(=O)CNC(=O)[C@H](CCC(=O)O)NC(=O)[C@H](C)NC(=O)[C@@H](N)Cc1c[nH]cn1)[C@@H](C)O)[C@@H](C)O)C(C)C)C(=O)N[C@@H](CCC(=O)O)C(=O)N[C@@H](Cc1c[nH]c2ccccc12)C(=O)N[C@@H](CC(C)C)C(=O)N[C@H](C(=O)N[C@@H](CCCNC(=N)N)C(=O)NCC(=O)N[C@@H](CCCCNC(=O)COCCOCCNC(=O)COCCOCCNC(=O)CC[C@H](NC(=O)CCCCCCCCCOc1ccc(C(=O)O)cc1)C(=O)O)C(=O)NCC(=O)N[C@@H](CCC(=O)O)C(=O)NCC(=O)O)C(C)C [Example 2, N^ε27-[2-[2-[2-[[2-[2-[2-[[(4S)-4-carboxy-4-[10-(4-carboxyphenoxy)decanoylamino]butanoyl]amino]ethoxy]ethoxy]acetyl]amino]ethoxy]ethoxy]acetyl], N^ε36-[2-[2-[2-[[2-[2-[2-[[(4S)-4-carboxy-4-[10-(4-carboxyphenoxy)decanoylamino]butanoyl]amino]ethoxy]ethoxy]acetyl]amino]ethoxy]ethoxy]acetyl]-[Glu^22,Arg^26,Lys^27,Glu^30,Arg^34,Lys^36]-GLP-1-(7-37)-peptidyl-Glu-Gly] (H-HAEGTFTSDVSSYLEEQAARK([AEEA-AEEA-γGlu-Decanoyl(10-(4-HOOC-PhO))])FIEWLVRGK([AEEA-AEEA-γGlu-Decanoyl(10-(4-HOOC-PhO))])GEG-OH; N-terminus and C-terminus assumed) | 26 | 98 | 87 | –
2 | CC[C@H](C)[C@H](NC(=O)[C@H](Cc1ccccc1)NC(=O)[C@H](CCCCNC(=O)COCCOCCNC(=O)COCCOCCNC(=O)CC[C@H](NC(=O)CCCCCCCCCCCCC(=O)O)C(=O)O)NC(=O)[C@H](CCCNC(=N)N)NC(=O)[C@@H](NC(=O)[C@H](C)NC(=O)[C@H](CCC(=O)O)NC(=O)[C@H](CCC(=O)O)NC(=O)[C@H](CCC(=O)O)NC(=O)[C@H](CC(C)C)NC(=O)[C@H](Cc1ccc(O)cc1)NC(=O)[C@H](CO)NC(=O)[C@H](CO)NC(=O)[C@@H](NC(=O)[C@H](CC(=O)O)NC(=O)[C@H](CO)NC(=O)[C@@H](NC(=O)[C@H](Cc1ccccc1)NC(=O)[C@@H](NC(=O)CNC(=O)[C@H](CCC(=O)O)NC(=O)[C@H](C)NC(=O)[C@@H](N)Cc1c[nH]cn1)[C@@H](C)O)[C@@H](C)O)C(C)C)C(C)C)C(=O)N[C@@H](C)C(=O)N[C@@H](Cc1c[nH]cn1)C(=O)N[C@@H](CC(C)C)C(=O)N[C@H](C(=O)N[C@@H](CCC(N)=O)C(=O)NCC(=O)N[C@@H](CCCNC(=N)N)C(=O)N[C@@H](CCCCNC(=O)COCCOCCNC(=O)COCCOCCNC(=O)CC[C@H](NC(=O)CCCCCCCCCCCCC(=O)O)C(=O)O)C(=O)O)C(C)C [Example 17, N^ε27-[2-[2-[2-[[2-[2-[2-[[(4S)-4-carboxy-4-(13-carboxytridecanoylamino)butanoyl]amino]ethoxy]ethoxy]acetyl]amino]ethoxy]ethoxy]acetyl], N^ε37-[2-[2-[2-[[2-[2-[2-[[(4S)-4-carboxy-4-(13-carboxytridecanoylamino)butanoyl]amino]ethoxy]ethoxy]acetyl]amino]ethoxy]ethoxy]acetyl]-[Glu^22,Glu^23,Val^25,Arg^26,Lys^27,His^31,Gln^34,Lys^37]-GLP-1-(7-37)-peptide] (H-HAEGTFTSDVSSYLEEEAVRK([AEEA-AEEA-γGlu-C14 diacid])FIAHLVQGRK([AEEA-AEEA-γGlu-C14 diacid])-OH; N-terminus and C-terminus assumed) | 10 | 168 | – | –
3 | CC[C@H](C)[C@H](NC(=O)[C@H](Cc1ccccc1)NC(=O)[C@H](CCCCNC(=O)COCCOCCNC(=O)COCCOCCNC(=O)CC[C@H](NC(=O)CCCCCCCCCCCCC(=O)O)C(=O)O)NC(=O)[C@H](CCCNC(=N)N)NC(=O)[C@H](C)NC(=O)[C@H](C)NC(=O)[C@H](CCC(N)=O)NC(=O)[C@H](CCC(=O)O)NC(=O)[C@H](CCC(=O)O)NC(=O)[C@H](CC(C)C)NC(=O)[C@H](Cc1ccc(O)cc1)NC(=O)[C@H](CO)NC(=O)[C@H](CO)NC(=O)[C@@H](NC(=O)[C@H](CC(=O)O)NC(=O)[C@H](CO)NC(=O)[C@@H](NC(=O)[C@H](CCCCNC(=O)COCCOCCNC(=O)COCCOCCNC(=O)CC[C@H](NC(=O)CCCCCCCCCCCCC(=O)O)C(=O)O)NC(=O)[C@@H](NC(=O)CNC(=O)[C@H](CCC(=O)O)NC(=O)C(C)(C)NC(=O)[C@@H](N)Cc1c[nH]cn1)[C@@H](C)O)[C@@H](C)O)C(C)C)C(=O)N[C@@H](C)C(=O)N[C@@H](Cc1c[nH]cn1)C(=O)N[C@@H](CC(C)C)C(=O)N[C@H](C(=O)N[C@@H](CCC(N)=O)C(=O)NCC(=O)N[C@@H](CCCNC(=N)N)C(=O)NCC(=O)O)C(C)C [Example 18, N^ε12-[2-[2-[2-[[2-[2-[2-[[(4S)-4-carboxy-4-(13-carboxytridecanoylamino)butanoyl]amino]ethoxy]ethoxy]acetyl]amino]ethoxy]ethoxy]acetyl], N^ε27-[2-[2-[2-[[2-[2-[2-[[(4S)-4-carboxy-4-(13-carboxytridecanoylamino)butanoyl]amino]ethoxy]ethoxy]acetyl]amino]ethoxy]ethoxy]acetyl]-[Aib^8,Lys^12,Glu^22,Arg^26,Lys^27,His^31,Gln^34]-GLP-1-(7-37)-peptide] (H-H[Aib]EGTK([AEEA-AEEA-γGlu-C14 diacid])TSDVSSYLEEQAARK([AEEA-AEEA-γGlu-C14 diacid])FIAHLVQGRG-OH) | 10 | – | – | 2.1
4 | CC[C@H](C)[C@H](NC(=O)[C@H](Cc1ccccc1)NC(=O)[C@H](CCCCNC(=O)COCCOCCNC(=O)COCCOCCNC(=O)CC[C@H](NC(=O)CCCCCCCCCOc1ccc(C(=O)O)cc1)C(=O)O)NC(=O)[C@H](Cc1c[nH]cn1)NC(=O)[C@H](C)NC(=O)[C@H](C)NC(=O)[C@H](CCC(N)=O)NC(=O)CNC(=O)[C@H](CCC(=O)O)NC(=O)[C@H](CC(C)C)NC(=O)[C@H](Cc1ccc(O)cc1)NC(=O)[C@H](CO)NC(=O)[C@H](CO)NC(=O)[C@@H](NC(=O)[C@H](CC(=O)O)NC(=O)[C@H](CO)NC(=O)[C@@H](NC(=O)[C@H](Cc1ccccc1)NC(=O)[C@@H](NC(=O)CNC(=O)[C@H](CCC(=O)O)NC(=O)[C@H](C)NC(=O)[C@@H](N)Cc1c[nH]cn1)[C@@H](C)O)[C@@H](C)O)C(C)C)C(=O)N[C@@H](CCC(=O)O)C(=O)N[C@@H](Cc1c[nH]c2ccccc12)C(=O)N[C@@H](CC(C)C)C(=O)N[C@H](C(=O)N[C@@H](CCCNC(=N)N)C(=O)NCC(=O)N[C@@H](CCCCNC(=O)COCCOCCNC(=O)COCCOCCNC(=O)CC[C@H](NC(=O)CCCCCCCCCOc1ccc(C(=O)O)cc1)C(=O)O)C(=O)NCC(=O)N[C@@H](CCC(=O)O)C(=O)O)C(C)C [Example 10, N^ε27-[2-[2-[2-[[2-[2-[2-[[(4S)-4-carboxy-4-[10-(4-carboxyphenoxy)decanoylamino]butanoyl]amino]ethoxy]ethoxy]acetyl]amino]ethoxy]ethoxy]acetyl], N^ε36-[2-[2-[2-[[2-[2-[2-[[(4S)-4-carboxy-4-[10-(4-carboxyphenoxy)decanoylamino]butanoyl]amino]ethoxy]ethoxy]acetyl]amino]ethoxy]ethoxy]acetyl]-[His^26,Lys^27,Glu^30,Arg^34,Lys^36]-GLP-1-(7-37)-peptidyl-Glu] (H-HAEGTFTSDVSSYLEGQAAHK([AEEA-AEEA-γGlu-Decanoyl(10-(4-HOOC-PhO))])FIEWLVRGK([AEEA-AEEA-γGlu-Decanoyl(10-(4-HOOC-PhO))])GE-OH; N-terminus and C-terminus assumed) | 23 | 187 | – | –
